Here are results for one compound from US20190321302A1, “PRESERVATION OF MICROORGANISMS” (Yun NV, priority 2016, published 2019).

Where two headings read alike, the source gives them in different places.

The test system of data set [1] is probiotic capsules. The following applies: for % survival: 3 months cold storage, relative to Blanc; for CFU/g: capsules 15% in basic cream pH 4.5, 3 months cold storage. Here is the method: A basic cream without preservatives/perfume was used as basis for further tests. The preservative tested was Sorbic acid (2,4 hexadienoic acid), an organic acid with pKa 4.76 at 25° C. at different concentrations. The pH of the cream for all the tested conditions was adjusted to 4.5 using HCl/NaOH.
The probiotic capsules are suspended 15% (m/) in the cream base with the different preservative concentrations. To simulate release of the probiotics in vivo, the use of a Citric acid buffer was used in vitro. The citric acid will dissolve the membrane of the capsule and hereby release the probiotics inside the capsule. CA buffer was made by dissolving 31.2 g Na2HPo4 & 1.25 g Citric acid in 971.54 g Sterile water. The Final solution is isotonic with a pH of 7.4±0.2.
The sample creams are sampled in duplo after which it is dissolved in CA-buffer. A further 1/10 dilution series is made and 0.1 ml is spread on MRS agar plates using the ‘copacabana spread plating method’ with 5 glass beads diameter 4 mm. Plating happens in duplo and results (after 3 days incubation 37° C.) are calculated as CFU/ gram cream. Storage happens at 4° C. & 25° C. Sampling happens after 1-2-3 months.

The test system of data set [2] is E. coli (DSM 1576), Ps. Aeruginosa (DSM 1128), C. albicans (DSM 1386), St. aureus (DSM 799), As. Niger (DSM 1988). The following applies: base cream without capsules, pH 4.5, 4 weeks, concentrations as low as 0.1%.
Protocol: This was proven by conducting a challenge test on the cream (without the probiotic capsules) with the different preservative concentrations, according to the European Pharmacopeia (5.1.3).
Challenge tests are used to determine the efficacy of the antimicrobial conservation system for dermatological products. […] Sorbic acid was tested in concentrations : 0.5%-0.3%-0.1%-0% (Control).
The challenged organisms were E. coli (DSM 1576), Ps. Aeruginosa (DSM 1128), C. albicans (DSM 1386), St. aureus (DSM 799), As. Niger (DSM 1988).
Addition of the challenged organisms (in 100 gram product) happens at 10^6 CFU/ML. Sampling happens after 6 hours, 24 hours, 7-14 & 28 days. A challenge test is successful if at least a 3 log reduction is visible after 7 days for the bacteria and a 2 log reduction for the yeasts/molds after 14 days—3 log after 4 weeks. Results shown are after 4 weeks of sampling.
For data set [3] the following is noted: at 25° C.; cited from earlier work.

As a reminder, the pKa is the negative logarithm of the acid dissociation constant. In the case of `CC=CC=CC(=O)O` [Sorbic acid, 2,4 hexadienoic acid], the entries for the “% survival” value in data set [1] (sorbic acid 0.03 %), in data set [1] (sorbic acid 0.1 %) and in data set [1] (sorbic acid 0.3 %) were 68%, 79% and 76%, respectively. The CFU/g in data set [1] (sorbic acid 0.03 %) is 6.E+07 CFU/g; in data set [1] (sorbic acid 0.1 %), 7.E+07 CFU/g; in data set [1] (sorbic acid 0.3 %), 7.E+07 CFU/g. In data set [2], the “preservative effect in challenge test” value is “good preservative effect”. Moreover, the pKa in data set [3] is 4.76.
